Structures can show the parent of a compound that is named as a salt. Where two headings read alike, the source gives them in different places.
Columns and labels:
PA63-channel [1] = target: T1, PA63-channel (Bacillus anthracis, UniProt P13423); test: biochemical; assay type: binding
PA63-channel [2] = target: T1, PA63-channel; test: biochemical; assay type: binding; remark: listed apart in the source
J774A.1 macrophages = assay type: cell-based; conditions: for amount of lysed cells (LF-induced cell lysis after acidic pulse): pH 5
J774A.1 cells [3] = assay type: cell-based
J774A.1 cells [4] = conditions: 100 µM
PA63-channel [5] = target: T1, PA63-channel; conditions: cited from earlier work
PA63-channel [6] = target: T1, PA63-channel; conditions: cited from earlier work; remark: listed apart in the source
[7] = read-out: Half saturation constant KS, pH 6

T1 sequence (P13423 197-764 limits assumed): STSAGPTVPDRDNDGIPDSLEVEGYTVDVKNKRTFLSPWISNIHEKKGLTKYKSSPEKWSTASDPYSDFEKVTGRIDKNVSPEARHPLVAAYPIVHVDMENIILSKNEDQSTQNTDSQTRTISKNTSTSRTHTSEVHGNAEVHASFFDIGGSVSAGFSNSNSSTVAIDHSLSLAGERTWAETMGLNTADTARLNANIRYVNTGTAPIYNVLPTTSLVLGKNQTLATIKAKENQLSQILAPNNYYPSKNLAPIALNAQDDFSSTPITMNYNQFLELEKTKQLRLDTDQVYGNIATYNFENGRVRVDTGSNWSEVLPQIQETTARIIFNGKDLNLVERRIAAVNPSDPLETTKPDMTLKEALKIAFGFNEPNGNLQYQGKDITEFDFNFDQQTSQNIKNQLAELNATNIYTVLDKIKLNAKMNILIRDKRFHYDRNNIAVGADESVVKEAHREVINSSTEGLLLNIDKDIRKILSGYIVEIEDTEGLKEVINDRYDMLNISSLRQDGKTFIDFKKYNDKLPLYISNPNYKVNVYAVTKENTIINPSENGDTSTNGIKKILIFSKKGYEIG

For “1-(4-chlorophenyl)-2-(4-bromophenyl)imidazo[1,2-a]pyridinium tetrafluoroborate [HA1568]”, the “K*” value (PA63-channel [1]) was 478,000 L/mol, the “Stability constant K” value (PA63-channel [1]; pH 6) was 478,000 L/mol and the Kd (PA63-channel [1]; pH 6, read-out: Half saturation constant KS) was 2.7 µM. For the same compound, the “off-rate k-1” value (PA63-channel [2]) was 260 s⁻¹, the “on-rate constant k1” value (PA63-channel [2]) was 1.3e+08 M⁻¹ s⁻¹ and the “K (stability constant from ratio k1/k-1)” value (PA63-channel [2]; pH 6) was 511,000 L/mol. The “k1 (on-rate constant)” value (PA63-channel [2]; pH 6) was 1.3×10^8 L/(molxs), the “k-1 (off-rate constant)” value (PA63-channel [2]; pH 6) was 260 s⁻¹ and the Kd (PA63-channel [2]; pH 6, read-out: KS) was 2 µM. The “viability of J774A.1 cells by MTS-assay after acidic shift with PA63/LF” value (J774A.1 macrophages) was “protective effect”, the “amount of lysed cells (LF-induced cell lysis after acidic pulse)” value (from here on “amount of lysed cells”) (J774A.1 macrophages) was “significantly reduced” and the “lethal toxin-treated cells that survived in the presence of the substance” value (J774A.1 cells [3]) was “about 80%”. The “protection from lysis by PA63/LF in the medium” value (“protection from lysis by PA63/LF” below) (J774A.1 cells [3]) was “protected” and the “cell viability (MTS assay)” value (J774A.1 cells [4]; 24 h) was “no effect on cell viability”.

With `O=[N+]([O-])c1cccc(-n2c(-c3ccc(Br)cc3)c[n+]3ccccc23)c1` (as salt: bromide) [HA1495, 1-(3-nitrophenyl)-2-(4-bromophenyl)imidazo[1,2-a]pyridinium bromide] the melting point was 176 to 177 °C.

In the case of `CCN(CC)CCCC(C)Nc1ccnc2cc(Cl)ccc12` (stereo not shown) [Chloroquine], the “K*” value (PA63-channel [5]) is listed as 676,000 L/mol, the “Stability constant K” value (PA63-channel [5]; pH 6) is listed as 676,000 L/mol and the Kd (PA63-channel [5]; [7]) is listed as 1.5 µM. The Kd (PA63-channel [5]; read-out: Half saturation constant Ks) was 1.43 µM, the “K (stability constant from ratio k1/k-1)” value (PA63-channel [6]) was 1,030,000 L/mol and the “k1 (on-rate constant)” value (PA63-channel [6]) was 3.6×10^8 L/(molxs). For the same compound, the “k-1 (off-rate constant)” value (PA63-channel [6]) was 350 s⁻¹ and the Kd (PA63-channel [6]; read-out: KS) was 0.97 µM.

For `O=[N+]([O-])c1ccc(-c2c[n+]3ccccc3n2-c2ccc(O)cc2)cc1` [HA1383, 1-(4-hydroxyphenyl)-2-(4-nitrophenyl)imidazo[1,2-a]pyridinium tetrafluoroborate], the “K (Lineweaver-Burke plot)” value (PA63-channel [1]) was 740,000 1/M, the “K*” value (PA63-channel [1]) was 749,000 L/mol and the Kd (PA63-channel [1]; Half saturation constant KS) was 1.3 µM. The Kd (PA63-channel [1]; Half saturation constant Ks) was 1.34 µM, the Kd (PA63-channel [2]) was 1.8 µM and the “off-rate k-1” value (PA63-channel [2]) was 352 s⁻¹. For the same compound, the “K (stability constant from ratio k1/k-1)” value (PA63-channel [2]; pH 6) was 560,000 L/mol, the “k1 (on-rate constant)” value (PA63-channel [2]; pH 6) was 2.1×10^8 L/(molxs) and the “k-1 (off-rate constant)” value (PA63-channel [2]; pH 6) was 370 s⁻¹. For the same compound, the “amount of lysed cells” value (J774A.1 macrophages) was “significantly reduced”, the “protection from lysis by PA63/LF” value (J774A.1 cells [3]) was “moderate inhibitory effect” and the melting point was 171 to 173 °C. The “cell viability (MTS assay)” value (J774A.1 cells [4]; 7 h) was “no effect on cell viability” and the “cell viability (MTS assay)” value (J774A.1 cells [4]; 24 h) was “slightly decreased”.

For `O=[N+]([O-])c1cccc(-n2c(-c3ccc(Br)cc3)c[n+]3ccccc23)c1` [HA1495, 1-(3-nitrophenyl)-2-(4-bromophenyl)imidazo[1,2-a]pyridinium bromide], the Kd (PA63-channel [1]; Half saturation constant KS) was 3.6 µM, the “Stability constant K” value (PA63-channel [1]; pH 6) was 274,000 L/mol and the “amount of lysed cells” value (J774A.1 macrophages) was “significantly reduced”. For the same compound, the “protection from lysis by PA63/LF” value (J774A.1 cells [3]) was “moderate inhibitory effect” and the “cell viability (MTS assay)” value (J774A.1 cells [4]; 24 h) was “no effect on cell viability”.

With `O=c1[nH]c2cccc[n+]2c2ccccc12` [HA 47] the “Stability constant K” value (PA63-channel [1]; pH 6) was 500 L/mol and the Kd (PA63-channel [1]; [7]) was 1990 µM.

With `Brc1ccc(-c2csc3cccc[n+]23)cc1` [HA 112] the Kd (PA63-channel [1]; Half saturation constant KS) was 57 µM and the “Stability constant K” value (PA63-channel [1]; pH 6) was 18,500 L/mol.

In the case of `Clc1ccc(OCn2cc[n+]3ccccc23)c(Cl)c1` [HA 486], the “K*” value (PA63-channel [1]) is reported as 38,000 L/mol, the Kd (PA63-channel [1]; Half saturation constant KS) is reported as 27 µM and the “Stability constant K” value (PA63-channel [1]; pH 6) is reported as 38,000 L/mol. The Kd (PA63-channel [2]) was 32 µM, the “off-rate k-1” value (PA63-channel [2]) was 3,500 1/s and the “on-rate constant k1” value (PA63-channel [2]) was 1.2e+08 M⁻¹ s⁻¹. The “K (stability constant from ratio k1/k-1)” value (PA63-channel [2]; pH 6) was 34,000 L/mol, the “k1 (on-rate constant)” value (PA63-channel [2]; pH 6) was 1.2×10^8 L/(molxs) and the “k-1 (off-rate constant)” value (PA63-channel [2]; pH 6) was 3,500 1/s.

In the case of `Clc1cc(Cl)c(-n2nnc3cccc[n+]32)c(Cl)c1` [HA 728], the Kd (PA63-channel [1]; Half saturation constant KS) is reported as 85 µM and the “Stability constant K” value (PA63-channel [1]; pH 6) is reported as 11,800 L/mol.

For `Clc1ccc(OCn2cn[n+]3ccccc23)c(Cl)c1` [HA 766], the Kd (PA63-channel [1]; Half saturation constant KS) was 36 µM and the “Stability constant K” value (PA63-channel [1]; pH 6) was 29,400 L/mol.

For `Cn1c(COc2ccc(Cl)cc2)n[n+]2ccccc12` [HA 1196], the Kd (PA63-channel [1]; Half saturation constant KS) was 260 µM and the “Stability constant K” value (PA63-channel [1]; pH 6) was 3,800 L/mol.

With `COc1ccc([N+](=O)[O-])cc1-n1nnc2cccc[n+]21` [HA 1212] the “Stability constant K” value (PA63-channel [1]; pH 6) was 7,000 L/mol and the Kd (PA63-channel [1]; [7]) was 150 µM.

With `Clc1ccc(-n2nnc3ccc4ccccc4[n+]32)c(Cl)c1` [HA 1221] the Kd (PA63-channel [1]; Half saturation constant KS) was 170 µM and the “Stability constant K” value (PA63-channel [1]; pH 6) was 6,000 L/mol.

With `O=C(C[n+]1ccccc1Cl)c1ccc([N+](=O)[O-])cc1` [HA 1371] the Kd (PA63-channel [1]; Half saturation constant KS) was 310 µM and the “Stability constant K” value (PA63-channel [1]; pH 6) was 3,200 L/mol.

In the case of `CCOC(=O)c1ccc(-n2c(-c3ccc(Br)cc3)c[n+]3cccc(O)c23)cc1` [HA 1504], the Kd (PA63-channel [1]; Half saturation constant KS) is reported as 12 µM and the “Stability constant K” value (PA63-channel [1]; pH 6) is reported as 82,900 L/mol.

For `O=c1c2ccccc2[n+]2ccccc2n1Cc1cccc2ccccc12` [HA 1882], the Kd (PA63-channel [1]; Half saturation constant KS) was 130 µM and the “Stability constant K” value (PA63-channel [1]; pH 6) was 7,900 L/mol.

With `COc1ccc(-n2c(=S)n(-c3ccc([N+](=O)[O-])cc3)c3cccc[n+]32)cc1` [HA 1885] the Kd (PA63-channel [1]; Half saturation constant KS) was 110 µM and the “Stability constant K” value (PA63-channel [1]; pH 6) was 10,800 L/mol.

— article PMC3688708 (PLoS ONE, 2013)
